Results: patent US12209078B2, “Crystalline forms of carbazole inhibitors of RhoGTPase for the treatment of disease” (MBQ Pharma, priority 2021, dated 2025)

Experiments:
[1] = Thermogravimetric analysis (TGA); type: physicochemical; conditions: heating to 400° C. under N2 at 5.0° C./min
Method: Thermogravimetric Analysis (TGA) Thermographs were recorded in a Thermogravimetric Analyzer (TGA) from TA Instruments Inc. (Q500) calibrated with calcium oxalate monohydrate (CaC2O4·H2O) standard to determine if MBQ-167 degrades before melting. Between 1.000-2.000 mg of the crystalline sample were equilibrated at 25° C. for 5 min before heating to 400° C. under N2 atmosphere (60 mL/min) at a rate of 5.0° C./min and a temperature accuracy of 0.1° C. Data was analyzed with the TA Universal Analysis 2000 software (version 4.5A).
Decomposition of the Form I polymorph (a) begins at about 184.7° C., while onset for decomposition of the Form II polymorph (b) begins at about 193.0° C.

[2] = Differential scanning calorimetry (DSC); type: physicochemical; conditions: heating 5.0° C./min under N2
Method: Differential Scanning calorimetry (DSC) DSC was performed to determine the melting temperature (Tm) and enthalpy of fusion (ΔfusH) of MBQ-167. A differential scanning calorimeter (DSC) from TA Instruments Inc. (Q2000) equipped with a RCS40 single-stage refrigeration system was employed to carry out these measurements. The calibration of the DSC was conducted with an indium standard (Tm=156.6° C. and ΔfusH=28.54 J/g). Between 1.000-3.000 mg of the crystalline sample was weighed using a XP26 microbalance from Mettler Toledo (±0.002 mg) and placed on Tzero aluminum pans that were hermetically sealed. Samples were equilibrated at 25° C. for 5 min before heating to 250° C. at a rate of 5.0° C./min and then was cooled to 25° C. at a heating rate of 10° C./min under a N2 atmosphere (50 mL/min) and a temperature accuracy of 0.1° C.
A first endothermic peak, with an onset of 128.22° C. and centered at 129.82° C., corresponding to 0.4504 W/g, is followed by a second endothermic peak, with an onset of 152.81° C. and centered at 153.64° C., corresponding to 0.5809 W/g.
Overlay of the two DSC thermographs, shown in FIG. 3, makes apparent the source of the behavior of the Form II polymorph. The Form I polymorph undergoes a single endothermic phase transition to the melt. […]

Question: For CCn1c2ccccc2c2cc(-n3nncc3-c3ccccc3)ccc21 [Form I polymorph, 9-Ethyl-3-(5-phenyl-1H-1,2,3-triazol-1-yl)-9H-carbazole], which “onset of decomposition (TGA)” value [1] is on record?
Answer: about 184.7 °C

Question: Which “onset of decomposition (TGA)” value [1] does the source give for CCn1c2ccccc2c2cc(-n3nncc3-c3ccccc3)ccc21 [Form II polymorph, 9-Ethyl-3-(5-phenyl-1H-1,2,3-triazol-1-yl)-9H-carbazole] here?
Answer: about 193.0 °C

Question: And the “centre of first endothermic peak (phase transition to the more stable Form I polymorph)” value [2]?
Answer: 129.82 °C

Question: And the “onset of first endothermic peak (phase transition to the more stable Form I polymorph)” value [2]?
Answer: 128.22 °C

Question: Which “decomposition relative to melting (TGA)” value [1] does the source give for CCn1c2ccccc2c2cc(-n3nncc3-c3ccccc3)ccc21 [MBQ-167, 9-ethyl-3-(5-phenyl-1H-1,2,3-triazol-1-yl)-9H-carbazole] here?
Answer: starts to decompose after the melting temperature
